How the values were obtained:
Dactolisib + Tozasertib = compound: Cn1c(=O)n(-c2ccc(C(C)(C)C#N)cc2)c2c3cc(-c4cnc5ccccc5c4)ccc3ncc21 [Dactolisib] + Cc1cc(Nc2cc(N3CCN(C)CC3)nc(Sc3ccc(NC(=O)C4CC4)cc3)n2)n[nH]1 [Tozasertib] (partner 0.1 µM); assay: relative viability (nuclei count vs DMSO), 5 days (fraction); higher = more cells survive
In short: (§1)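 Relative viability was taken as the ratio of nuclei in treated wells to nuclei in vehicle wells. Lung cancer cell lines in 1536-well plates received compounds by pin tool one day after seeding, either one drug alone or a fixed anchor-drug dose plus five library-drug doses (not always all listed) in √10 steps. Nuclei were counted on 4× images after 5 days of treatment, and values are medians of duplicate plates.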

AZ505 + Foretinib = compound: C1CCC(CC1)N(CCNCCC2=C3C(=C(C=C2)O)NC(=O)CO3)C(=O)CCNCCC4=CC(=C(C=C4)Cl)Cl [AZ505] + COc1cc2c(Oc3ccc(NC(=O)C4(C(=O)Nc5ccc(F)cc5)CC4)cc3F)ccnc2cc1OCCCN1CCOCC1 [Foretinib] (partner 0.25 µM); assay: as above
In short: as §1

| Cell Line | relative viability (Dactolisib + Tozasertib; first compound 0.002 µM) | relative viability (Dactolisib + Tozasertib; first compound 0.006325 µM) | relative viability (Dactolisib + Tozasertib; first compound 0.02 µM) | relative viability (Dactolisib + Tozasertib; first compound 0.06325 µM) | relative viability (Dactolisib + Tozasertib; first compound 0.2 µM) | relative viability (AZ505 + Foretinib; first compound 0.08 µM) | relative viability (AZ505 + Foretinib; first compound 0.253 µM) | relative viability (AZ505 + Foretinib; first compound 0.8 µM) | relative viability (AZ505 + Foretinib; first compound 2.53 µM) | relative viability (AZ505 + Foretinib; first compound 8 µM) |
| --- | --- | --- | --- | --- | --- | --- | --- | --- | --- | --- |
| 201T | 0.936 | 0.965 | 0.98 | 0.879 | 0.474 | 1.01 | 1.14 | 1.07 | 1.06 | 1.19 |
| NCI-H2170 | 0.753 | 0.735 | 0.62 | 0.511 | 0.252 | 1.05 | 1.07 | 0.994 | 1.03 | 0.934 |
| NCI-H460 | 0.38 | 0.396 | 0.387 | 0.257 | 0.139 | 0.976 | 1.01 | 0.982 | 1.03 | 0.966 |
| NCI-H661 | 0.345 | 0.366 | 0.345 | 0.381 | 0.353 | 1 | 1.02 | 0.981 | 0.984 | 0.999 |
| HCC-15 | 0.388 | 0.386 | 0.449 | 0.326 | 0.215 | 0.911 | 1.04 | 1.03 | 1.02 | 1.02 |
| ABC-1 | 0.188 | 0.176 | 0.165 | 0.166 | 0.19 | 0.856 | 1.21 | 0.976 | 1.02 | 0.863 |
| LCLC-103H | 0.492 | 0.481 | 0.451 | 0.379 | 0.286 | 0.734 | 0.857 | 0.729 | 0.848 | 0.715 |
| NCI-H441 | 0.831 | 0.632 | 0.522 | 0.384 | 0.284 | 0.909 | 0.97 | 1.09 | 0.876 | 1.06 |
| EPLC-272H | 0.348 | 0.221 | 0.243 | 0.207 | 0.193 |  | 0.704 | 0.635 | 0.569 | 0.698 |
